Reference: patent US12077503B2, “Substituted cyclic amides and their use as herbicides” (FMC CORPORATION, priority 2015, dated 2024)

Assays:
Assay type in all cases: in vivo
Kochia (Kochia scoparia) = assay: Test A preemergence; details: Bassia scoparia, pre-emergence, 240 h, read-out: Plant response rating, Kochia
Outline: (§1)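 In a loam soil and sand blend, planted seeds got a preemergence directed soil spray, and young plants at the one- to two-leaf stage, 2–10 cm high, got a postemergence application; ~10 d greenhouse hold; injury rated visually, 0 = none, 100 = complete control.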

[1] = test system: barnyardgrass (Echinochloa crus-galli); assay: Test A preemergence; details: Echinochloa crus-galli, pre-emergence, 240 h, read-out: Plant response rating, Barnyardgrass
Outline: as §1

[2] = test system: giant foxtail (Setaria faberii); assay: Test A preemergence; details: Setaria faberi, pre-emergence, 240 h, read-out: Plant response rating, Foxtail, Giant
Outline: as §1

[3] = test system: pigweed (Amaranthus retroflexus); assay: Test A preemergence; details: Amaranthus retroflexus, pre-emergence, 240 h, read-out: Plant response rating, Pigweed
[4] = test system: ryegrass, Italian (Italian ryegrass, Lolium multiflorum); assay: Test A preemergence; details: Lolium multiflorum, pre-emergence, 240 h, read-out: Plant response rating, Ryegrass, Italian
Outline: as §1

[5] = test system: Galium (catchweed bedstraw, Galium aparine); assay: Test C preemergence; details: for Plant response rating, Galium: scale 0 to 100, 0 no effect, 100 complete control
Outline: (§2)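 Visual rating, 0–100 scale (0 = no effect, 100 = complete control) versus controls, 13–15 d after treatment. Compounds in non-phytotoxic solvent plus surfactant; applied preemergence to seeds in loam/sand soil or postemergence to 1- to 4-leaf plants (2–18 cm) in peat/vermiculite medium; greenhouse-held.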

[6] = test system: crabgrass, large (large crabgrass, Digitaria sanguinalis); assay: Test C preemergence; details: for Plant response rating, Crabgrass, Large: scale 0 to 100, 0 no effect, 100 complete control
Outline: as §2

[7] = test system: foxtail, giant (giant foxtail, Setaria faberii); assay: Test C preemergence; details: for Plant response rating, Foxtail, Giant: scale 0 to 100, 0 no effect, 100 complete control
Outline: as §2

[8] = test system: johnsongrass (Sorghum halepense); assay: Test C preemergence; details: for Plant response rating, Johnsongrass: scale 0 to 100, 0 no effect, 100 complete control
Outline: as §2

[9] = test system: lambsquarters (Chenopodium album); assay: Test C preemergence; details: for Plant response rating, Lambsquarters: scale 0 to 100, 0 no effect, 100 complete control
Outline: as §2

[10] = test system: nutsedge, yellow (yellow nutsedge, Cyperus esculentus); assay: Test C preemergence; details: for Plant response rating, Nutsedge, Yellow: scale 0 to 100, 0 no effect, 100 complete control
Outline: as §2

[11] = test system: oilseed rape (Brassica napus); assay: Test C preemergence; details: for Plant response rating, Oilseed Rape: scale 0 to 100, 0 no effect, 100 complete control
Outline: as §2

soybean (Glycine max) = assay: Test C preemergence; details: for Plant response rating, Soybean: scale 0 to 100, 0 no effect, 100 complete control
Outline: as §2

[12] = test system: velvetleaf (Abutilon theophrasti); assay: Test C preemergence; details: for Plant response rating, Velvetleaf: scale 0 to 100, 0 no effect, 100 complete control
Outline: as §2

[13] = test system: waterhemp (common waterhemp, Amaranthus rudis); assay: Test C preemergence; details: for Plant response rating, Waterhemp: scale 0 to 100, 0 no effect, 100 complete control
Outline: as §2

[14] = 125 g ai/ha, Preemergence, visual injury after approximately 10 d, 0 to 100 scale where 0 is no effect and 100 is complete control
[15] = 500 g ai/ha, preemergence, 0 to 100 scale, 0 = no effect, 100 = complete control
[16] = 31 g ai/ha, 0 is no effect, 100 is complete control

## CN1C[C@H](c2ccc(C(F)(F)F)cc2)[C@@H](C(=O)Nc2ccccc2F)C1=O [Compound 622, (3S,4S)—N-(2-fluorophenyl)-1-methyl-2-oxo-4-[4-(trifluoromethyl)phenyl]-3-pyrrolidinecarboxamide]
Kochia (Kochia scoparia); [14]
  pest or weed control at 125 g/ha: 80%
Kochia (Kochia scoparia); [15]
  pest or weed control at 500 g/ha: 80%
[1]; [14]
  pest or weed control at 125 g/ha: 90%
[1]; [15]
  pest or weed control at 500 g/ha: 90%
[2]; [14]
  pest or weed control at 125 g/ha: 90%
[2]; [15]
  pest or weed control at 500 g/ha: 90%
[3]; [14]
  pest or weed control at 125 g/ha: 80%
[3]; [15]
  pest or weed control at 500 g/ha: 80%
[4]; [14]
  pest or weed control at 125 g/ha: 40%
[4]; [15]
  pest or weed control at 500 g/ha: 40%
[5]; [16]
  Plant response rating (scale of 0 to 100), Galium: 80
[5]; 62 g ai/ha
  Plant response rating, Galium: 90
[5]; 125 g ai/ha
  Plant response rating, Galium: 90
[5]; 250 g ai/ha
  Plant response rating, Galium: 90
[6]; [16]
  Plant response rating (scale of 0 to 100), Crabgrass, Large: 100
[6]; 62 g ai/ha
  Plant response rating, Crabgrass, Large: 95
[6]; 125 g ai/ha
  Plant response rating, Crabgrass, Large: 100
[6]; 250 g ai/ha
  Plant response rating, Crabgrass, Large: 100
[7]; [16]
  Plant response rating (scale of 0 to 100), Foxtail, Giant: 90
[7]; 62 g ai/ha
  Plant response rating, Foxtail, Giant: 90
[7]; 125 g ai/ha
  Plant response rating, Foxtail, Giant: 95
[7]; 250 g ai/ha
  Plant response rating, Foxtail, Giant: 95
[8]; [16]
  Plant response rating (scale of 0 to 100), Johnsongrass: 25
[8]; 62 g ai/ha
  Plant response rating, Johnsongrass: 60
[8]; 125 g ai/ha
  Plant response rating, Johnsongrass: 50
[8]; 250 g ai/ha
  Plant response rating, Johnsongrass: 65
[9]; [16]
  Plant response rating (scale of 0 to 100), Lambsquarters: 75
[9]; 62 g ai/ha
  Plant response rating, Lambsquarters: 35
[9]; 125 g ai/ha
  Plant response rating, Lambsquarters: 70
[9]; 250 g ai/ha
  Plant response rating, Lambsquarters: 75
[10]; [16]
  Plant response rating (scale of 0 to 100), Nutsedge, Yellow: 0
[10]; 62 g ai/ha
  Plant response rating, Nutsedge, Yellow: 0
[10]; 125 g ai/ha
  Plant response rating, Nutsedge, Yellow: 0
[10]; 250 g ai/ha
  Plant response rating, Nutsedge, Yellow: 0
[11]; [16]
  Plant response rating (scale of 0 to 100), Oilseed Rape: 60
[11]; 62 g ai/ha
  Plant response rating, Oilseed Rape: 85
[11]; 125 g ai/ha
  Plant response rating, Oilseed Rape: 85
[11]; 250 g ai/ha
  Plant response rating, Oilseed Rape: 85
Soybean (Glycine max); [16]
  Plant response rating (scale of 0 to 100), Soybean: 0
Soybean (Glycine max); 62 g ai/ha
  Plant response rating, Soybean: 20
Soybean (Glycine max); 125 g ai/ha
  Plant response rating, Soybean: 85
Soybean (Glycine max); 250 g ai/ha
  Plant response rating, Soybean: 45
[12]; [16]
  Plant response rating (scale of 0 to 100), Velvetleaf: 0
[12]; 62 g ai/ha
  Plant response rating, Velvetleaf: 25
[12]; 125 g ai/ha
  Plant response rating, Velvetleaf: 70
[12]; 250 g ai/ha
  Plant response rating, Velvetleaf: 70
[13]; [16]
  Plant response rating (scale of 0 to 100), Waterhemp: 75
[13]; 62 g ai/ha
  Plant response rating, Waterhemp: 85
[13]; 125 g ai/ha
  Plant response rating, Waterhemp: 90
[13]; 250 g ai/ha
  Plant response rating, Waterhemp: 90
